Experiment [1] deals with T1, Na/K-ATPase/Src receptor complex (Sus scrofa, UniProt P05024).
T1 construct: The α1 Na/K-ATPase was purified from pig kidney; tissue Upstate Biotechnology (Src only); host or cells: pig kidney (Na/K-ATPase)
Description: Reconstituted Na/K-ATPase/Src receptor complex, Src pY418 by Western blot (kinase activity assay of Src). The class given is biochemical, pig. To be noted: ouabain 1 μM, 100 μM vanade to inactivate ATPase activity. How it is done: (§1) In one example, the FRET-based in vitro high throughput assay utilizes the in vitro reconstitution of receptor Na/K-ATPase and Src, and a peptide Src substrate-based FRET assay. […] To reconstitute the receptor α1 Na/K-ATPase/Src complex, purified pig kidney Na/K-ATPase was mixed with purified recombinant Src. This receptor complex has an inhibited Src activity. The binding of agonists to the receptor complex releases the inhibited Src and result in an increase in Src activity, which is measured by a peptide-based FRET analysis (FIG. 2A, FIG. 2B). To screen the agonist of receptor Na/K-ATPase/Src complex, the reconstituted receptor is exposed to compounds, and then measured for Src activation using the peptide-based FRET assay.
Phosphorylation of Src pY 418, as an indicator of Src activation, was measured by Western blot. Ouabain was used at 1 μM and the assay was done in the presence of 100 μM vanade to inactivate ATPase activity. Values are mean±S.E. of at least three independent experiments. * p<0.05 compared with control. ** p<0.01 compared with control.
(§2) To assay for receptor antagonist, the reconstituted receptor was exposed to compounds in the presence and absence of an agonist (ouabain) and then assessed whether the compounds could antagonize ouabain-induced activation of Src. To verify that they are specific antagonists of receptor Na/K-ATPase/Src complex, their effects on ouabain-, EGF- and dopamine-induced signal transduction was measured in LLC-PK1 and PY-17 cells.
To determine whether the compound affect the Na/K-ATPase/Src receptor activity, the compounds was incubated with the purified Src (4.5 U) and 1 μg Na/K-ATPase for 15 min at 37° C. Afterward, 2 mM ATP/Mg^2+ was added. The reaction continued for 15 min at 37° C. and was stopped by addition of SDS sample buffer. Afterward, the Src pY418 was measured by anti-pY418 antibody to indicate Src activation.
For orientation: Immunoblotting shows a protein as a band on a membrane.

The test system of experiment [2] is ouabain-induced signal transduction in cultured cells. As to the kind of experiment: Ouabain-induced signal transduction in cultured cells. Format: cell-based. How it is done:
as §2

Another experiment relates to ERKs in LLC-PK1 cells. Description: Immunostaining assay for active ERK in LLC-PK1 cells. The class given is cell-based, pig. To be noted: pretreated cells exposed to 1 nM ouabain for 60 min. How it is done: as §2
LLC-PK1 cells were pretreated with different concentrations of MB5 for 15 min, exposed to 1 nM ouabain for 60 min, and assayed for active ERKs. A representative set of images is shown. LLC-PK1 cells were pretreated with different concentrations of MB5 for 15 min, exposed to stimuli for either 10 or 3 min, and assayed for active ERKs. A representative set of images is shown.
The data presented in FIGS. 6C-6E show blocking ouabain-induced ERK activation by other antagonists of receptor Na/K-ATPase/Src complex. […] Both control and Tanshinone I-pretreated cells were exposed to ouabain (1 nM) for 1 hour, and processed for immuno-staining of active ERK as in FIG. 6A. A representative set of images are presented from three separate experiments.
LLC-PK1 cells grown on coverslip were serum-starved and treated with MB5 or stimuli for indicated time. […] The signals were detected by a Leica (Wetzlar, Germany) confocal microscope. […]

Another experiment deals with DU145 tumor xenograft. As to the kind of experiment: DU145 xenograft tumors in NOD/SCID mice. The class given is in vivo. To be noted: 20 mg/kg i.p. every day for 3 weeks. How it is done:
FIGS. 8A-8C show the MB5 effect on the growth of DU145 tumor xenografts in NOD/SCID mice Viable DU145 cells (5×10^6) were injected to the flank of NOD/SCID mice. After tumor reached 100 mm^3, mice were injected via i.p. with DMSO or MB5 at a dose of 20 mg/Kg. Values are mean±S.E. ** p<0.01 compared with each control.
Animal protocols were approved by the Institutional Animal Care and Use Committee at the University of Toledo Health Science Campus. Tumor xenografts were established by subcutaneous injection of 5×10^6 DU145 cells into two flanks of 6-week-old female NOD/SCID mice (Charles River). When the tumors reached an average volume of 100 mm^3, mice were injected intraperitoneally with DMSO or MB5 (at doses of 20 mg/kg body weight) every day for 3 weeks.

For experiment [3], the target named is T1, Na/K-ATPase/Src receptor complex. As to the kind of experiment: FRET based high throughput screen for agonists and antagonists. Format: biochemical, pig. To be noted: screen with ouabain plus compounds, followed by cell-based analyses.
From the text: Referring now to FIGS. 2A and 2B, there are shown schematic illustrations of a FRET based high throughput assay for agonist and antagonist. […] A pathway-based approach is useful to screen for agonists of Na/K-ATPase/Src receptor targets. Agonist can interact with Na/K-ATPase resulting Src phosphorylation. This active Src transfers the γ-phosphate of ATP to a single tyrosine residue in the synthetic peptide substrate. Then, a site specific protease recognizes and cleaves non-phosphorylated peptides. […] Cleavage disrupts FRET on the peptide, whereas uncleaved, phosphorylated peptides maintain FRET.
This assay is similar as the agonist screening. For example, in the presence of ouabain, antagonist can reduce ouabain induced peptide substrate phosphorylation.
as §1
The chemical library used for screening in the present study contained 100 structurally diverse, drug-like, naturally occurring organic compounds or their semisynthetic derivatives. Stock compounds were prepared at 10 mM in DMSO. The specific activities of Na/K-ATPase of various kidney preparations were in the range of 900-1,200 μmol/mg/h. The high throughput screen was conducted in a Corning 384-well low-volume assay plates at room temperature.
The first step was Kinase Reaction with the final reaction volume of 10 μl. The purified Src (4.5 U) was incubated with 2 μg of the purified Na/K-ATPase in phosphate-buffered saline (PBS) for 5 min. Afterward, the Na/K-ATPase/Src complex was exposed to compounds to screen for agonist or ouabain 10 μM plus compounds to screen antagonists for 10 min. Then, the Src kinase substrate Tyr 2 peptide or phosphor-peptide (control) was added. The reaction was initiated by addition of 2 mM ATP/Mg^2+, continued for 60 min.
The second step was Development Reaction. Each well was added 5 μl Development Solution, then mix the plate and incubate another 60 min. The assay was stopped by adding 5 μl stop reagent and then fluorescent signals were measured.

`O=c1c2cccc(O)c2oc2c(O)c(O)ccc12` [MB5, 3,4,5-trihydroxyxanthone]: in experiment [1], the “effect on ouabain-induced Src activation (Src pY418)” value was “antagonizing effects”. For the same molecule, in experiment [2], the “effect on ouabain-induced signal transduction” value was “antagonize”. Also, the “effect on ouabain-induced activation of ERKs” value in the experiment on ERKs in LLC-PK1 cells is “blocked”. Besides, the “growth of DU145 tumor xenograft” value in the experiment with DU145 tumor xenograft is listed as “inhibited the growth”. In addition, the “identification as antagonist of receptor Na/K-ATPase/Src complex (ouabain antagonist)” value is recorded as “positively identified as ouabain antagonists” in experiment [3] and “receptor antagonists” in experiment [3] (listed as MB-5).

For the origin of these results see US20150233925A1, “Assays and Cell-Based Tests Using a Receptor Na/K-ATPase/Src Complex and Uses Thereof” (The University of Toledo, priority 2012, published 2015).
